Test results taken from patent publication US20240270821A1, “GIP/GLP1/GCG TRI-RECEPTOR AGONISTS AND USES THEREOF” (priority 2023, published 2024).
Where two headings read alike, the source gives them in different places. Starred links: 1 amine or outer side, 2 acyl side, 3 side chain; linkers in the order of their positions; H or OH if unused. Non-standard residues stand in square brackets, D forms with d. Groups on a side chain read outwards from the residue. *: point of attachment. C18 diacid = O=C(O)CCCCCCCCCCCCCCCCC(=O)*; αMePhe(2-F) = C[C@](N)(Cc1ccccc1F)C(=O)O; γGlu = O=C(O)[C@H](CCC(=O)[*:2])N[*:1]; αMe4Pal = C[C@](N)(Cc1ccncc1)C(=O)O; αMeY = C[C@](N)(Cc1ccc(O)cc1)C(=O)O; 4Pal = N[C@@H](Cc1ccncc1)C(=O)O; αMeL = CC(C)C[C@](C)(N)C(=O)O; Orn = NCCC[C@H](N)C(=O)O; AEEA = NCCOCCOCC(=O)O; Aib = CC(C)(N)C(=O)O

Legend:
Assay type in all cases: cell-based
hGIPR [1] = molecular target: T1, hGIPR (Homo sapiens, UniProt P48546); assay: Functional cAMP activity in the presence of 1% HSA; conditions: read-out: cAMP Rel EC50, hGIPR
T1 sequence (P48546 22-466): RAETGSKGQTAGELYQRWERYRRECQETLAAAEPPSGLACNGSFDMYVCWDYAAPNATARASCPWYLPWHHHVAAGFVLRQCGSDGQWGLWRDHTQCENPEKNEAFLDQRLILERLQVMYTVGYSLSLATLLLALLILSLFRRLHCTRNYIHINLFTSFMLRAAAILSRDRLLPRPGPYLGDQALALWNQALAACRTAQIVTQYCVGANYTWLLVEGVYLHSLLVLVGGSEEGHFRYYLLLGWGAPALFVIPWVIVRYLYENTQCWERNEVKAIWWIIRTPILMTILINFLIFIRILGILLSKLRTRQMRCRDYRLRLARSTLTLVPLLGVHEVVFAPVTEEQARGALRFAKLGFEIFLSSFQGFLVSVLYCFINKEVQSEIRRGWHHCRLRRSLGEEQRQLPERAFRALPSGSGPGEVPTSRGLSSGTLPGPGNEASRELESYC

hGLP-1R [2] = molecular target: T2, hGLP-1R (Homo sapiens, UniProt P43220); assay: Functional cAMP activity in the presence of 1% HSA; conditions: read-out: cAMP Rel EC50, hGLP-1R
T2 sequence (P43220 24-463): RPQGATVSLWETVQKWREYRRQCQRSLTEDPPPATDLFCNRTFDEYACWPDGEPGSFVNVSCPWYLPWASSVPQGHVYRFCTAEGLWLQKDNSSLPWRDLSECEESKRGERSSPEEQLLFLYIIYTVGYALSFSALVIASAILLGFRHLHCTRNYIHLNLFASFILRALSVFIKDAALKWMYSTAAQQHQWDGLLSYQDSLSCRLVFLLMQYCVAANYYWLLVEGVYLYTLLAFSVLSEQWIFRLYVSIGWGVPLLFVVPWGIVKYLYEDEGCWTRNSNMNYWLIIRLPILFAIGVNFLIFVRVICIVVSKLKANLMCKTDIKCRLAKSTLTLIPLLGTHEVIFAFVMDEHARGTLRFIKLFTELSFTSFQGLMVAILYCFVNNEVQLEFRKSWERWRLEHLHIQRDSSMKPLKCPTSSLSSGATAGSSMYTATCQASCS

human GcgR = human GcgR (Homo sapiens, UniProt P47871); assay: Functional cAMP activity in the presence of 1% HSA; conditions: read-out: cAMP Rel EC50, hGcgR
Chain of human GcgR (P47871 26-477): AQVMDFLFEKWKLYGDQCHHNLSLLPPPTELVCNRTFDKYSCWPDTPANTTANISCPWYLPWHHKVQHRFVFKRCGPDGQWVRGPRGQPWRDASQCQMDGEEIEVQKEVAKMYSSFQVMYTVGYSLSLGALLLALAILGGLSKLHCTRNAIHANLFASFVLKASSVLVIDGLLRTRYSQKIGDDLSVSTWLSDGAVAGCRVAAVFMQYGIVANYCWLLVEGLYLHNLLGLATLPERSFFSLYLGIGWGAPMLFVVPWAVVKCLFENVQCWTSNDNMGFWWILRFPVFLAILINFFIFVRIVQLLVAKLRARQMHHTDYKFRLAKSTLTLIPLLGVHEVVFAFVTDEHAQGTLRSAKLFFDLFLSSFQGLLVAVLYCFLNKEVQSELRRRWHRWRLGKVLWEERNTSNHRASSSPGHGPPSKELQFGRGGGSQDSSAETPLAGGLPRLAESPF

hGIPR [3] = molecular target: T1, hGIPR; assay: Functional cAMP activation in the presence of 0.1% casein (no HSA); conditions: read-out: Relative cAMP EC50, hGIPR;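 as to Relative cAMP EC50, hGIPR: intracellular cAMP rise after 30 min at 37 °C read by HTRF against a standard curve, scaled between buffer alone (0%) and top control ligand concentration (100%), four-parameter fit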;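 as to Relative cAMP EC50, hGLP-1R: intracellular cAMP rise after 30 min at 37 °C read by HTRF, normalized between buffer only (0%) and maximal control ligand (100%), four-parameter variable-slope fit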;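 as to Relative cAMP EC50, hGcgR: intracellular cAMP rise after 30 min at 37 °C, read by HTRF against a cAMP standard curve, scaled from buffer only (0%) to maximal control ligand response (100%)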
hGLP-1R [4] = molecular target: T2, hGLP-1R; assay: as above; conditions: read-out: Relative cAMP EC50, hGLP-1R
hGcgR = hGcgR (Homo sapiens, UniProt P47871); assay: as above; conditions: read-out: Relative cAMP EC50, hGcgR;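 also: intracellular cAMP rise after 30 min at 37 °C, read by HTRF against a cAMP standard curve, scaled from buffer only (0%) to maximal control ligand response (100%)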
Chain of hGcgR (P47871 26-477): as above

[5] = HEK-293 clonal cell line, 1% HSA, geometric mean of relative EC50
[6] = in the presence of 0.1% casein (no HSA), geometric mean of relative EC50

Substance	EC50 (hGIPR [1]; [5])	EC50 (hGLP-1R [2]; [5])	EC50 (human GcgR; [5])	EC50 (hGIPR [3]; [6])	EC50 (hGLP-1R [4]; [6])	EC50 (hGcgR; [6])	EC50 (hGIPR [1])	EC50 (hGLP-1R [2])	EC50 (human GcgR)	EC50 (hGIPR [3])	EC50 (hGLP-1R [4])	EC50 (hGcgR)
H-Y[Aib]QGT[αMePhe(2-F)]TSD[4Pal]SI[αMeL]LDKK([γGlu-γGlu-C18 diacid])AQ[Aib][Orn]FIEYLAEGGPSSGEPPPEGSEE-NH2 [Example 650]	3.1 nM	31.4 nM	574 nM	0.0814 nM	0.649 nM	16.2 nM						
H-Y[Aib]QGT[αMePhe(2-F)]TSD[4Pal]SI[αMeL]LDKK([γGlu-γGlu-C18 diacid])AQ[Aib][Orn]FIEYLAEGGPSSGEPPPSGSEE-NH2 [Example 636]	4.3 nM	36.6 nM	935 nM	0.054 nM	0.504 nM	9.28 nM						
H-Y[Aib]QGT[αMePhe(2-F)]TSD[4Pal]SI[αMeL]LDKK([γGlu-γGlu-C18 diacid])AQ[Aib][Orn]FIEYLEEGGPSSGEPPPSGSEE-NH2 [Example 635]	2.7 nM	53.9 nM	753 nM	0.0405 nM	0.625 nM	7.09 nM						
H-Y[Aib]QGT[αMePhe(2-F)]TSD[4Pal]SI[αMeL]LDKK([γGlu-γGlu-C18 diacid])AQ[Aib][Orn]FIEYLQEGGPSSGEPPPEGSEE-NH2 [Example 653]	1.38 nM	25 nM	542 nM	0.0303 nM	0.426 nM	7.29 nM						
H-Y[Aib]QGT[αMePhe(2-F)]TSD[4Pal]SI[αMeL]LDKK([γGlu-γGlu-C18 diacid])AQ[Aib][Orn]FIEYLSEGGPSSGEPPPEGSEE-NH2 [Example 651]	6.3 nM	53.9 nM	639 nM	0.112 nM	1.02 nM	10.7 nM						
H-Y[Aib]QGT[αMePhe(2-F)]TSD[4Pal]SI[αMeL]LDKK([γGlu-γGlu-C18 diacid])AQ[Aib][Orn]FIEYLSEGGPSSGEPPPSGSEE-NH2 [Example 637]	7.23 nM	76.2 nM	968 nM	0.108 nM	1.08 nM	11.7 nM						
H-Y[Aib]QGT[αMePhe(2-F)]TSD[4Pal]SI[αMeL]LDKK([γGlu-γGlu-C18 diacid])AQ[Aib][Orn]FIEYLTEGGPSSGEPPPEGSEE-NH2 [Example 652]	1.92 nM	26.8 nM	764 nM	0.0342 nM	0.426 nM	15.3 nM						
H-Y[Aib]QGT[αMePhe(2-F)]TSD[4Pal]SI[αMeL]LDKK([γGlu-γGlu-C18 diacid])AQ[Aib][Orn]FIEYLTEGGPSSGEPPPSGSEE-NH2 [Example 638]	2.39 nM	36 nM	1090 nM	0.0354 nM	0.4 nM	14 nM						
H-Y[Aib]QGT[αMePhe(2-F)]TSD[4Pal]SI[αMeL]LD[Orn]K([AEEA-γGlu-C18 diacid])AQ[Aib][Orn]FIEYLIEGGPSSGEPPPEEG-NH2 [Example 477]							1.44 nM	18.7 nM	716 nM	0.0127 nM	0.173 nM	5.26 nM
H-Y[Aib]QGT[αMePhe(2-F)]TSD[4Pal]SI[αMeL]LD[Orn]K([AEEA-γGlu-C18 diacid])AQ[Aib][Orn]FIEYLIEGGPSSGEPPPSEG-NH2 [Example 489]							1.25 nM	11.8 nM	523 nM	0.0121 nM	0.172 nM	2.31 nM
H-Y[Aib]QGT[αMePhe(2-F)]TSD[4Pal]SI[αMeL]LD[Orn]K([AEEA-γGlu-C18 diacid])AQ[Aib][Orn]FIEYLLEGGPSSGEPPPEEG-NH2 [Example 494]							1.08 nM	19.9 nM	333 nM	0.014 nM	0.211 nM	1.26 nM
H-Y[Aib]QGT[αMePhe(2-F)]TSD[4Pal]SI[αMeL]LD[Orn]K([AEEA-γGlu-C18 diacid])AQ[αMe4Pal]EFI[dE][αMeY]LAEGGPSSGAPPPSGS-NH2 [Example 642]							0.791 nM	67.1 nM	519 nM	0.00796 nM	0.474 nM	3.49 nM
H-Y[Aib]QGT[αMePhe(2-F)]TSD[4Pal]SI[αMeL]LD[Orn]K([AEEA-γGlu-C18 diacid])AQ[αMe4Pal]EFI[dE][αMeY]LIEGGPSSGAPPPSGS-NH2 [Example 640]							0.591 nM	27.8 nM	730 nM	0.00696 nM	0.288 nM	9.5 nM
H-Y[Aib]QGT[αMePhe(2-F)]TSD[4Pal]SI[αMeL]LD[Orn]K([AEEA-γGlu-C18 diacid])AQ[αMe4Pal]EFI[dE][αMeY]LLEGGPSSGAPPPSGE-NH2 [Example 615]							0.95 nM	82.9 nM	697 nM	0.00825 nM	0.575 nM	3.93 nM
H-Y[Aib]QGT[αMePhe(2-F)]TSD[4Pal]SI[αMeL]LD[Orn]K([AEEA-γGlu-C18 diacid])AQ[αMe4Pal]EFI[dE][αMeY]LLEGGPSSGAPPPSGS-NH2 [Example 641]							0.832 nM	68.3 nM	451 nM	0.00819 nM	0.489 nM	3.72 nM
H-Y[Aib]QGT[αMePhe(2-F)]TSD[4Pal]SI[αMeL]LD[Orn]K([AEEA-γGlu-C18 diacid])AQ[αMe4Pal]EFI[dE][αMeY]LLEGGPSSGEPPPSGS-NH2 [Example 645]							0.863 nM	76.3 nM	398 nM	0.00724 nM	0.596 nM	3.25 nM
H-Y[Aib]QGT[αMePhe(2-F)]TSD[4Pal]SI[αMeL]LD[Orn]K([AEEA-γGlu-C18 diacid])AQ[αMe4Pal]EFI[dE][αMeY]LQEGGPSSGAPPPSGS-NH2 [Example 643]							1.61 nM	60.1 nM	1170 nM	0.0223 nM	0.741 nM	16 nM
H-Y[Aib]QGT[αMePhe(2-F)]TSD[4Pal]SI[αMeL]LD[Orn]K([AEEA-γGlu-C18 diacid])AQ[αMe4Pal]EFI[dE][αMeY]LQEGGPSSGEPPPSGS-NH2 [Example 648]							1.4 nM	86.5 nM	1170 nM	0.0392 nM	1.76 nM	20.3 nM
H-Y[Aib]QGT[αMePhe(2-F)]TSD[4Pal]SI[αMeL]LD[Orn]K([AEEA-γGlu-C18 diacid])AQ[αMe4Pal][Orn]FI[dE][αMeY]LEEGGPSSGEPPPEGT-NH2 [Example 506]							28.7 nM	224 nM	2330 nM	0.308 nM	2.14 nM	17.1 nM
H-Y[Aib]QGT[αMePhe(2-F)]TSD[4Pal]SI[αMeL]LD[Orn]K([AEEA-γGlu-C18 diacid])AQ[αMe4Pal][Orn]FI[dE][αMeY]LIEGGPSSGAPPPESE-NH2 [Example 755]							1.39 nM	23.9 nM	274 nM	0.00805 nM	0.175 nM	2.31 nM
H-Y[Aib]QGT[αMePhe(2-F)]TSD[4Pal]SI[αMeL]LD[Orn]K([AEEA-γGlu-C18 diacid])AQ[αMe4Pal][Orn]FI[dE][αMeY]LIEGGPSSGAPPPESEE-NH2 [Example 756]							1.61 nM	28.2 nM	372 nM	0.0096 nM	0.212 nM	2.26 nM
H-Y[Aib]QGT[αMePhe(2-F)]TSD[4Pal]SI[αMeL]LD[Orn]K([AEEA-γGlu-C18 diacid])AQ[αMe4Pal][Orn]FI[dE][αMeY]LIEGGPSSGDPPPEGE-NH2 [Example 727]							1.09 nM	24.1 nM	287 nM	0.0109 nM	0.271 nM	2.38 nM
H-Y[Aib]QGT[αMePhe(2-F)]TSD[4Pal]SI[αMeL]LD[Orn]K([AEEA-γGlu-C18 diacid])AQ[αMe4Pal][Orn]FI[dE][αMeY]LIEGGPSSGDPPPEGTE-NH2 [Example 731]							1.27 nM	27.4 nM	291 nM	0.0117 nM	0.267 nM	2.35 nM
H-Y[Aib]QGT[αMePhe(2-F)]TSD[4Pal]SI[αMeL]LD[Orn]K([AEEA-γGlu-C18 diacid])AQ[αMe4Pal][Orn]FI[dE][αMeY]LIEGGPSSGDPPPEGTGE-NH2 [Example 732]							1.26 nM	27.2 nM	327 nM	0.0118 nM	0.268 nM	2.18 nM
